# Experimental data reported in ChEMBL document CHEMBL3045199, “Synthesis of some (E)-6-[2-(furan-2-yl)ethenyl]-1,2,4-triazin-5-ones and their biological evaluation as antitumor agents” (2013).
# Experiments:
# Format in all cases: functional
# SF-539 = experiment: Cytotoxicity against Homo sapiens (human) SF539 cells after 48 hr by SRB assay; details: SF-539, 48 h, read-out: pGI50 (converted)
# MOLT-4 = experiment: Cytotoxicity against Homo sapiens (human) MOLT4 cells after 48 hr by SRB assay; details: MOLT-4, 48 h, read-out: pGI50 (converted)
# SK-MEL-5 = experiment: Cytotoxicity against Homo sapiens (human) SK-MEL-5 cells after 48 hr by SRB assay; details: SK-MEL-5, 48 h, read-out: pGI50 (converted)
# NCI-H460 = experiment: Cytotoxicity against Homo sapiens (human) NCI-H460 cells after 48 hr by SRB assay; details: NCI-H460, 48 h, read-out: pGI50 (converted)
# MDA-MB-231 = experiment: Cytotoxicity against Homo sapiens (human) MDA-MB-231 cells after 48 hr by SRB assay; details: MDA-MB-231, 48 h, read-out: pGI50 (converted)
# SF-268 = experiment: Cytotoxicity against Homo sapiens (human) SF268 cells after 48 hr by SRB assay; details: SF-268, 48 h, read-out: pGI50 (converted)
# HOP-62 = experiment: Cytotoxicity against Homo sapiens (human) HOP62 cells after 48 hr by SRB assay; details: HOP-62, 48 h, read-out: pGI50 (converted)
# OVCAR-5 = experiment: Cytotoxicity against Homo sapiens (human) OVCAR5 cells after 48 hr by SRB assay; details: OVCAR-5, 48 h, read-out: pGI50 (converted)
# SK-MEL-28 = experiment: Cytotoxicity against Homo sapiens (human) SK-MEL-28 cells after 48 hr by SRB assay; details: SK-MEL-28, 48 h, read-out: pGI50 (converted)
# K562 = experiment: Cytotoxicity against Homo sapiens (human) K562 cells after 48 hr by SRB assay; details: K562, 48 h, read-out: pGI50 (converted)
# SN12C = experiment: Cytotoxicity against Homo sapiens (human) SN12C cells after 48 hr by SRB assay; details: read-out: pGI50 (converted)
# CAKI-1 = experiment: Cytotoxicity against Homo sapiens (human) Caki1 cells after 48 hr by SRB assay; details: CAKI-1, 48 h, read-out: pGI50 (converted)
# NCI-H23 = experiment: Cytotoxicity against Homo sapiens (human) NCI-H23 cells after 48 hr by SRB assay; details: NCI-H23, 48 h, read-out: pGI50 (converted)
# HL-60(TB) = experiment: Cytotoxicity against Homo sapiens (human) HL-60(TB) cells after 48 hr by SRB assay; details: HL-60, 48 h, read-out: pGI50 (converted)
# OVCAR-4 = experiment: Cytotoxicity against Homo sapiens (human) OVCAR4 cells after 48 hr by SRB assay; details: OVCAR-4, 48 h, read-out: pGI50 (converted)
# RPMI-8226 = experiment: Cytotoxicity against Homo sapiens (human) RPMI8226 cells after 48 hr by SRB assay; details: RPMI-8226, 48 h, read-out: pGI50 (converted)
# SNB-75 = experiment: Cytotoxicity against Homo sapiens (human) SNB75 cells after 48 hr by SRB assay; details: SNB-75, 48 h, read-out: pGI50 (converted)
# SW-620 = experiment: Cytotoxicity against Homo sapiens (human) SW620 cells after 48 hr by SRB assay; details: SW-620, 48 h, read-out: pGI50 (converted)
# MCF7 = experiment: Cytotoxicity against Homo sapiens (human) MCF7 cells after 48 hr by SRB assay; details: MCF7, 48 h, read-out: pGI50 (converted)
# IGROV-1 = experiment: Cytotoxicity against Homo sapiens (human) IGROV1 cells after 48 hr by SRB assay; details: IGROV-1, 48 h, read-out: pGI50 (converted)
# OVCAR-3 = experiment: Cytotoxicity against Homo sapiens (human) OVCAR3 cells after 48 hr by SRB assay; details: OVCAR-3, 48 h, read-out: pGI50 (converted)
# EKVX = experiment: Cytotoxicity against Homo sapiens (human) EKVX cells after 48 hr by SRB assay; details: read-out: pGI50 (converted)
# M14 = experiment: Cytotoxicity against Homo sapiens (human) M14 cells after 48 hr by SRB assay; details: M14, 48 h, read-out: pGI50 (converted)
# HCC 2998 = experiment: Cytotoxicity against Homo sapiens (human) HCC2998 cells after 48 hr by SRB assay; details: HCC 2998, 48 h, read-out: pGI50 (converted)
# HT-29 = experiment: Cytotoxicity against Homo sapiens (human) HT-29 cells after 48 hr by SRB assay; details: HT-29, 48 h, read-out: pGI50 (converted)
# SF-295 = experiment: Cytotoxicity against Homo sapiens (human) SF295 cells after 48 hr by SRB assay; details: SF-295, 48 h, read-out: pGI50 (converted)
# 786-0 = experiment: Cytotoxicity against Homo sapiens (human) 786-0 cells after 48 hr by SRB assay; details: 786-0, 48 h, read-out: pGI50 (converted)
# DU-145 = experiment: Cytotoxicity against Homo sapiens (human) DU145 cells after 48 hr by SRB assay; details: DU-145, 48 h, read-out: pGI50 (converted)
# HCT-15 = experiment: Cytotoxicity against Homo sapiens (human) HCT15 cells after 48 hr by SRB assay; details: HCT-15, 48 h, read-out: pGI50 (converted)
# T47D = experiment: Cytotoxicity against Homo sapiens (human) T47D cells after 48 hr by SRB assay; details: read-out: pGI50 (converted)
# NCI-H226 = experiment: Cytotoxicity against Homo sapiens (human) NCI-H226 cells after 48 hr by SRB assay; details: NCI-H226, 48 h, read-out: pGI50 (converted)
# OVCAR-8 = experiment: Cytotoxicity against Homo sapiens (human) OVCAR8 cells after 48 hr by SRB assay; details: OVCAR-8, 48 h, read-out: pGI50 (converted)
# A498 = experiment: Cytotoxicity against Homo sapiens (human) A498 cells after 48 hr by SRB assay; details: A498, 48 h, read-out: pGI50 (converted)
# SK-MEL-2 = experiment: Cytotoxicity against Homo sapiens (human) SK-MEL-2 cells after 48 hr by SRB assay; details: SK-MEL-2, 48 h, read-out: pGI50 (converted)
smiles,measurement,setting,value
O=c1[nH]cc(F)c(=O)[nH]1 [FLUOROURACIL],GI50,SF-539,1.26 µM
same,GI50,MOLT-4,12.6 µM
same,GI50,SK-MEL-5,12.6 µM
same,GI50,NCI-H460,1 µM
same,GI50,MDA-MB-231,501 µM
same,GI50,SF-268,50.1 µM
same,GI50,HOP-62,20 µM
same,GI50,OVCAR-5,158 µM
same,GI50,SK-MEL-28,50.1 µM
same,GI50,K562,20 µM
same,GI50,SN12C,25.1 µM
same,GI50,CAKI-1,3.98 µM
same,GI50,NCI-H23,12.6 µM
same,GI50,HL-60(TB),20 µM
same,GI50,OVCAR-4,63.1 µM
same,GI50,RPMI-8226,5.01 µM
same,GI50,SNB-75,200 µM
same,GI50,SW-620,25.1 µM
same,GI50,MCF7,1.58 µM
same,GI50,IGROV-1,12.6 µM
same,GI50,OVCAR-3,25.1 µM
same,GI50,EKVX,316 µM
same,GI50,M14,50.1 µM
same,GI50,HCC 2998,1.58 µM
same,GI50,HT-29,6.31 µM
same,GI50,SF-295,50.1 µM
same,GI50,786-0,12.6 µM
same,GI50,DU-145,10 µM
same,GI50,HCT-15,6.31 µM
same,GI50,T47D,79.4 µM
same,GI50,NCI-H226,251 µM
same,GI50,OVCAR-8,20 µM
same,GI50,A498,10 µM
same,GI50,SK-MEL-2,398 µM
